According to patent US9968582B2, “Use of a benzoate containing composition in urea cycle disorders and neurodegenerative disorders” (Rush University Medical Center, priority 2014, dated 2018):

Tests used:
[1] = tested on: dopamine (DA) in the striata; assay: MPTP mouse model of PD, HPLC of striatal dopamine; format: in vivo, mice; details: MPTP intoxication compared to saline-injected control mice, 7 days; FIG. 10
Description: (§1) Six- to eight-week old C57BL/6 mice were purchased from Harlan (Indianapolis, Ind.). For acute MPTP intoxication, mice received four intraperitoneal (i.p.) injections of MPTP-HCl (18 mg/kg of free base; Sigma Chemical Co., St. Louis, Mo.) in saline at 2-h intervals. Control animals received only saline.
(§2) GTB was mixed in 0.5% methylcellulose (MC) and from 3 h after the last injection of MPTP, mice were gavaged 100 μL GTB-mixed MC once daily using gavage needle. Therefore, control MPTP mice received only MC as vehicle.
Striatal level of dopamine was quantified in Complete Stand-Alone HPLC-ECD System EiCOMHTEC-500 (JM Science Inc., Grand Island, N.Y.). Briefly, mice were sacrificed by cervical dislocation after 7 days of MPTP intoxication and their striata were collected and immediately frozen in dry ice and stored at −80° C. until analysis. On the day of the analysis, tissues were sonicated in 0.2M perchloric acid containing isoproterenol and resulting homogenates were centrifuged at 20,000×g for 15 min at 4 C. After pH adjustment and filtration, 10 μl of supernatant was injected onto an Eicompak SC-3ODS column (Complete Stand-Alone HPLC-ECD System EiCOMHTEC-500 from JM Science Inc., Grand Island, N.Y.) and analyzed following the manufacturer's protocol.
Next, to determine whether GTB protects against biochemical deficits caused by MPTP, the inventor quantified levels of dopamine (DA) in the striata 7 days after the MPTP treatment. As evident from FIG. 10, MPTP intoxication led to about 75% decrease in striatal DA compared to striata of saline-injected control mice.

DJ-1 [2] = assay: MPTP mouse model of PD, Western blot of DJ-1 in the nigra; format: in vivo, mice; details: MPTP intoxication; FIG. 9A-B
Description: as §1, §2
(§3) Immunoblot analysis for DJ-1 and TH was carried out. Briefly, cell homogenates were electrophoresed, proteins were transferred onto a nitrocellulose membrane, and bands were visualized with an Odyssey infrared scanner after immunolabeling with respective primary antibodies followed by infra-red fluorophore-tagged secondary antibody (Invitrogen).
Upregulation and/or maintenance of PD-related beneficial protein such as DJ-1 in the nigra during neurodegenerative insults may have therapeutic efficacy in PD.

[3] = tested on: Tyrosine hydroxylase (TH); assay: MPTP mouse model of PD, Western blot of nigral TH; format: in vivo, mice; details: MPTP intoxication compared with saline-injected controls; FIG. 9A-B
Description: as §1, §2, §3
Tyrosine hydroxylase (TH), the key enzyme responsible for the production of dopamine, is present in dopaminergic neurons. MPTP-intoxication led to approximately 60% loss of nigral TH (FIG. 9A-B) compared with saline-injected controls.

NT-3 = details: brain cells; cited from earlier work
BDNF = details: brain cells; cited from earlier work
DJ-1 [4] = details: astrocytes and neurons (cited title); cited from earlier work
[5] = tested on: disease process of multiple sclerosis (MS) in mice; details: cited from earlier work
[6] = in vivo; cited from earlier work

| Structure (SMILES) | decrease in striatal DA [1] | level of DJ-1 in the nigra (DJ-1 [2]) | loss of nigral TH [3] | production of NT-3 (NT-3) | production of BDNF (BDNF) | DJ-1 protein (DJ-1 [4]) | disease process of multiple sclerosis (MS) [5] | metabolism and excretion [6] |
| --- | --- | --- | --- | --- | --- | --- | --- | --- |
| CN1CC=C(c2ccccc2)CC1 [MPTP, reference compound] | about 75% | decreased the level of DJ-1 | approximately 60% |  |  |  |  |  |
| O=C([O-])c1ccccc1.[Na+] [sodium benzoate] |  |  |  | increases the production | increases the production | up-regulates | suppresses the disease process | quickly metabolized and excreted from the body |
